Experimental data reported in ChEMBL document CHEMBL4229357, “1-Aroylindoline-hydroxamic acids as anticancer agents, inhibitors of HSP90 and HDAC” (Eur J Med Chem, 2018).
Activity calls are given as the source filed them. The rule behind the calls is not given here.

What was measured:
[1] = target: T1, Heat shock protein HSP90 (Homo sapiens) (UniProt P07900+P08238); assay: Inhibition of HSP90 in human HL60 cells assessed as induction of HSP70 expression after 24 hrs by Western blot analysis; type: cell-based
[2] = target: T1, Heat shock protein HSP90 (Homo sapiens); assay: Inhibition of HSP90 in human HL60 cells assessed as downregulation of phosphorylated Akt expression after 24 hrs by Western blot analysis; type: cell-based
[3] = target: T1, Heat shock protein HSP90 (Homo sapiens); assay: Inhibition of HSP90 in human HL60 cells assessed as downregulation of phosphorylated STAT3 expression after 24 hrs by Western blot analysis; type: cell-based
[4] = target: T1, Heat shock protein HSP90 (Homo sapiens); assay: Inhibition of HSP90 in human HL60 cells assessed as induction of HSP70 expression at 1 uM by Western blot analysis; type: cell-based; conditions: TDE = time-dependent effect
[5] = target: T1, Heat shock protein HSP90 (Homo sapiens); assay: Inhibition of HSP90 in human HL60 cells assessed as downregulation of phosphorylated Akt expression at 1 uM by Western blot analysis; type: cell-based; conditions: TDE = time-dependent effect
[6] = target: T1, Heat shock protein HSP90 (Homo sapiens); assay: Inhibition of HSP90 in human HL60 cells assessed as downregulation of phosphorylated STAT3 expression at 1 uM by Western blot analysis; type: cell-based; conditions: TDE = time-dependent effect
A549 = assay: Antiproliferative activity against human A549 cells after 48 hrs by sulforhodamine B assay; type: functional
HCT-116 = assay: Antiproliferative activity against human HCT116 cells after 48 hrs by sulforhodamine B assay; type: functional; conditions: HCT-116, 48 h
HL-60 = assay: Antiproliferative activity against human HL60 cells after 48 hrs by sulforhodamine B assay; type: functional
NCI-H1975 = assay: Antiproliferative activity against human NCI-H1975 cells after 48 hrs by sulforhodamine B assay; type: functional; conditions: NCI-H1975, 48 h
Histone deacetylase = type: protein assay, Homo sapiens
[7] = target: T2, Histone deacetylase (Homo sapiens) (UniProt Q13547+O15379+Q9UBN7+Q92769+Q9UQL6+Q8WUI4+Q9BY41+Q96DB2+P56524+Q9UKV0+Q969S8); assay: Inhibition of HDAC in human HL60 cells assessed as upregulation of acetyl-alpha-tubulin levels at 1 uM after 24 hrs by Western blot analysis; type: cell-based
[8] = target: T2, Histone deacetylase (Homo sapiens); assay: Inhibition of HDAC in human HL60 cells assessed as upregulation of acetylated histone H3 levels at 1 uM after 24 hrs by Western blot analysis; type: cell-based
[9] = target: Heat shock protein HSP 90-alpha (Homo sapiens, UniProt P07900); assay: Inhibition of FITC-geldanamycin binding to HSP90alpha (unknown origin) after 3 hrs by fluorescence polarization assay

Row | inhibition [1] | inhibition [2] | inhibition [3] | inhibition [4] | inhibition [5] | inhibition [6] | Compound | GI50 (A549; Homo sapiens, A549, 48 h) [nM] | GI50 (HCT-116) [nM] | GI50 (HL-60; Homo sapiens, HL-60, 48 h) [nM] | GI50 (NCI-H1975) [nM] | IC50 (Histone deacetylase) [nM] | inhibition [7] | inhibition [8] | GI50 (A549) [nM] | GI50 (HL-60) [nM] | IC50 [9] [nM]
1 | Dose-dependent effect | Dose-dependent effect | Dose-dependent effect | Tde | Tde | Tde | CC(C)c1cc(C(=O)N2CCc3cc(NC(=O)CCCCCCC(=O)NO)ccc32)c(O)cc1O |  |  |  |  |  |  |  |  |  | 
2 |  |  |  |  |  |  | COc1c(C)cnc(Cn2cnc3c(Cl)nc(N)nc32)c1C [BIIB021] | 330 | 150 | 590 | 380 | > 1000 | Active | Active |  |  | 
3 |  |  |  |  |  |  | O=C(CCCCCCC(=O)Nc1ccccc1)NO [VORINOSTAT] |  | 150 |  | 1410 |  |  |  | 1020 | 1740 | > 1000
